Data taken from patent US6737383B1, “Herbicidal oxadiazolidines” (priority 1999, dated 2004).

What was measured:
Details in all cases: Preemergence
[1] = tested on: bedstraw; assay: Test B pre/postemergence bedstraw; type: in vivo, Galium aparine
In short: (§1)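 Herbicidal effect was estimated by eye on a ten-point control scale after plants spent twelve to sixteen days in a greenhouse following soil or foliar treatment. Foliar sprays targeted plants at one to four leaves; all doses were formulated in a non-phytotoxic solvent with surfactant.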

[2] = tested on: blackgrass; assay: Test B pre/postemergence blackgrass; type: in vivo, Alopecurus myosuroides
In short: as §1

[3] = tested on: surinam grass; assay: Test B pre/postemergence surinam grass; type: in vivo, Brachiaria decumbens
In short: as §1

[4] = tested on: cocklebur; assay: Test B pre/postemergence cocklebur; type: in vivo, Xanthium strumarium
In short: as §1

[5] = tested on: corn; assay: Test B pre/postemergence corn; type: in vivo, Zea mays
In short: as §1

[6] = tested on: crabgrass; assay: Test B pre/postemergence crabgrass; type: in vivo, Digitaria sanguinalis
In short: as §1

[7] = tested on: giant foxtail; assay: Test B pre/postemergence giant foxtail; type: in vivo, Setaria faberii
In short: as §1

[8] = tested on: morningglory; assay: Test B pre/postemergence morningglory; type: in vivo, Ipomoea hederacea
In short: as §1

[9] = tested on: pigweed; assay: Test B pre/postemergence pigweed; type: in vivo, Amaranthus retroflexus
In short: as §1

[10] = tested on: rape; assay: Test B pre/postemergence rape; type: in vivo, Brassica napus
In short: as §1

[11] = tested on: soybean; assay: Test B pre/postemergence soybean; type: in vivo, Glycine max
In short: as §1

[12] = tested on: sugar beet; assay: Test B pre/postemergence sugar beet; type: in vivo, Beta vulgaris
In short: as §1

[13] = tested on: velvetleaf; assay: Test B pre/postemergence velvetleaf; type: in vivo, Abutilon theophrasti
In short: as §1

[14] = tested on: wheat; assay: Test B pre/postemergence wheat; type: in vivo, Triticum aestivum
In short: as §1

[15] = tested on: wild oat; assay: Test B pre/postemergence wild oat; type: in vivo, Avena fatua
In short: as §1

[16] = tested on: purple nutsedge; assay: Test B pre/postemergence purple nutsedge; type: in vivo, Cyperus rotundus
In short: as §1

[17] = Rate 125 g/ha, scale of 0 to 10 where 0 is no effect and 10 is complete control
[18] = Rate 250 g/ha, scale 0 (no effect) to 10 (complete control)
[19] = Rate 500 g/ha, scale 0 to 10 (0 no effect, 10 complete control)

## COCC(OC)n1c(=O)on(C(=O)N(c2ccc(F)cc2F)C(C)C)c1=O (centres unmarked) [Compound 738]
[1]; [17]
  Plant response rating, Bedstraw: 0
[1]; [18]
  Bedstraw plant response rating: 0
[1]; Rate 62 g/ha, scale 0 to 10
  Bedstraw plant response rating: 0
[1]; [19]
  Bedstraw plant response rating: 0
[2]; [17]
  Plant response rating, Blackgrass: 10
[2]; [18]
  Blackgrass plant response rating: 10
[2]; Rate 62 g/ha, scale 0 to 10
  Blackgrass plant response rating: 8
[2]; [19]
  Blackgrass plant response rating: 10
[3]; Rate 62 g/ha, scale of 0 to 10 where 0 is no effect and 10 is complete control
  B. signalgrass plant response rating: 6
[3]; [17]
  Plant response rating, B. signalgrass: 9
[3]; [18]
  B. signalgrass plant response rating: 10
[3]; [19]
  B. signalgrass plant response rating: 10
[4]; [17]
  Plant response rating, Cocklebur: 0
[4]; [18]
  Cocklebur plant response rating: 0
[4]; Rate 62 g/ha, scale 0 to 10
  Cocklebur plant response rating: 0
[4]; [19]
  Cocklebur plant response rating: 0
[5]; [17]
  Plant response rating, Corn: 4
[5]; [18]
  Corn plant response rating: 7
[5]; Rate 62 g/ha, scale 0 to 10
  Corn plant response rating: 0
[5]; [19]
  Corn plant response rating: 9
[6]; [17]
  Plant response rating, Crabgrass: 9
[6]; [18]
  Crabgrass plant response rating: 9
[6]; Rate 62 g/ha, scale 0 to 10
  Crabgrass plant response rating: 8
[6]; [19]
  Crabgrass plant response rating: 10
[7]; [17]
  Plant response rating, Giant foxtail: 9
[7]; [18]
  Giant foxtail plant response rating: 10
[7]; Rate 62 g/ha, scale 0 to 10
  Giant foxtail plant response rating: 8
[7]; [19]
  Giant foxtail plant response rating: 10
[8]; [17]
  Plant response rating, Morningglory: 1
[8]; [18]
  Morningglory plant response rating: 2
[8]; Rate 62 g/ha, scale 0 to 10
  Morningglory plant response rating: 1
[8]; [19]
  Morningglory plant response rating: 4
[9]; [17]
  Plant response rating, Redroot pigweed: 7
[9]; [18]
  Redroot pigweed plant response rating: 8
[9]; Rate 62 g/ha, scale 0 to 10
  Redroot pigweed plant response rating: 6
[9]; [19]
  Redroot pigweed plant response rating: 8
[10]; [17]
  Plant response rating, Rape: 5
[10]; [18]
  Rape plant response rating: 6
[10]; Rate 62 g/ha, scale 0 to 10
  Rape plant response rating: 2
[10]; [19]
  Rape plant response rating: 8
[11]; [17]
  Plant response rating, Soybean: 0
[11]; [18]
  Soybean plant response rating: 0
[11]; Rate 62 g/ha, scale 0 to 10
  Soybean plant response rating: 0
[11]; [19]
  Soybean plant response rating: 0
[12]; [17]
  Plant response rating, Sugarbeets: 6
[12]; [18]
  Sugarbeets plant response rating: 6
[12]; Rate 62 g/ha, scale 0 to 10
  Sugarbeets plant response rating: 3
[12]; [19]
  Sugarbeets plant response rating: 8
[13]; [17]
  Plant response rating, Velvetleaf: 1
[13]; [18]
  Velvetleaf plant response rating: 6
[13]; Rate 62 g/ha, scale 0 to 10
  Velvetleaf plant response rating: 0
[13]; [19]
  Velvetleaf plant response rating: 8
[14]; [17]
  Plant response rating, Wheat: 4
[14]; [18]
  Wheat plant response rating: 5
[14]; Rate 62 g/ha, scale 0 to 10
  Wheat plant response rating: 2
[14]; [19]
  Wheat plant response rating: 8
[15]; [17]
  Plant response rating, Wild oats: 9
[15]; [18]
  Wild oats plant response rating: 10
[15]; Rate 62 g/ha, scale 0 to 10
  Wild oats plant response rating: 4
[15]; [19]
  Wild oats plant response rating: 10
[16]; [18]
  Nutsedge plant response rating: 4
[16]; [19]
  Nutsedge plant response rating: 8
